# Measured values taken from patent EP0048614B1, “1-N-acylated and 1-N-alkylated derivatives of 4-0-substituted -2-deoxystreptamine aminoglycosides” (ELI LILLY AND COMPANY, priority 1980, dated 1982).
# Values joined by “and” are separate entries in the source; they are usually repeats but may differ in a detail not shown here. Equal values may be shown once.
# Tests used:
# Type in all cases: cell-based
# [1] = test system: Staphylococcus epidermidis EPI2; assay: MIC, standard agar dilution test; conditions: Staphylococcus epidermidis EPI2; agar dilution; read-out: Minimum Inhibitory Concentration
# Text: (§1) The antibacterial activity of the deprotected compounds of this invention is illustrated by the following in vitro and in vivo test data obtained with representative compounds. In Table I, the minimum inhibitory concentration (MIC) for representative compounds against a wide range of gram-positive and gram-negative bacteria is presented. The MIC values were obtained by the standard agar dilution test.
# [2] = test system: Serratia marcescens X99; assay: MIC, standard agar dilution test
# Text: as §1
# [3] = test system: Klebsiella pneumoniae X26; assay: MIC, standard agar dilution test; conditions: Klebsiella pneumoniae X26; agar dilution; read-out: Minimum Inhibitory Concentration
# Text: as §1
# [4] = test system: Streptococcus pneumoniae Park I; assay: MIC, standard agar dilution test; conditions: Streptococcus pneumoniae Park I; agar dilution; read-out: Minimum Inhibitory Concentration
# Text: as §1
# [5] = test system: Salmonella typhimurium 1335; assay: MIC, standard agar dilution test; conditions: Salmonella enterica; Salmonella typhimurium 1335; agar dilution; read-out: Minimum Inhibitory Concentration
# Text: as §1
# [6] = test system: Proteus rettgeri C24; assay: MIC, standard agar dilution test; conditions: Providencia rettgeri; Proteus rettgeri C24; agar dilution; read-out: Minimum Inhibitory Concentration
# Text: as §1
# [7] = test system: Pseudomonas aeruginosa Ps18; assay: MIC, standard agar dilution test; conditions: Pseudomonas aeruginosa Ps18; agar dilution; read-out: Minimum Inhibitory Concentration
# Text: as §1
# [8] = test system: Escherichia coli N10; assay: MIC, standard agar dilution test; conditions: agar dilution
# Text: as §1
# [9] = test system: Serratia marcescens SE3; assay: MIC, standard agar dilution test; conditions: Serratia marcescens SE3; agar dilution; read-out: Minimum Inhibitory Concentration
# Text: as §1
# [10] = test system: Shigella sonnei N9; assay: MIC, standard agar dilution test; conditions: read-out: Minimum Inhibitory Concentration
# Text: as §1
# [11] = test system: Proteus morganii PR15; assay: MIC, standard agar dilution test; conditions: Morganella morganii; Proteus morganii PR15; agar dilution; read-out: Minimum Inhibitory Concentration
# Text: as §1
# [12] = test system: Staphylococcus aureus S13E; assay: MIC, standard agar dilution test; conditions: read-out: Minimum Inhibitory Concentration
# Text: as §1
# [13] = test system: Enterobacter aerogenes EB17; assay: MIC, standard agar dilution test; conditions: Klebsiella aerogenes; Enterobacter aerogenes EB17; agar dilution; read-out: Minimum Inhibitory Concentration
# Text: as §1
# [14] = test system: Escherichia coli TEM; assay: MIC, standard agar dilution test; conditions: read-out: Minimum Inhibitory Concentration
# Text: as §1
# [15] = test system: Enterobacter cloacae EB5; assay: MIC, standard agar dilution test; conditions: Enterobacter cloacae EB5; agar dilution; read-out: Minimum Inhibitory Concentration
# Text: as §1
# [16] = test system: Hemophilus influenzae 76; assay: MIC, standard agar dilution test
# Text: as §1
# [17] = test system: Streptococcus group D X66; assay: MIC, standard agar dilution test; conditions: DX66; Streptococcus group D X66; agar dilution; read-out: Minimum Inhibitory Concentration
# Text: as §1
# [18] = test system: Escherichia coli EC14; assay: MIC, standard agar dilution test; conditions: Escherichia coli EC14; agar dilution; read-out: Minimum Inhibitory Concentration
# Text: as §1
# [19] = test system: Salmonella heidelberg X514; assay: MIC, standard agar dilution test; conditions: Salmonella enterica; Salmonella heidelberg X514; agar dilution; read-out: Minimum Inhibitory Concentration
# Text: as §1
# [20] = test system: Pseudomonas aeruginosa X528; assay: MIC, standard agar dilution test; conditions: Pseudomonas aeruginosa X528; agar dilution; read-out: Minimum Inhibitory Concentration
# Text: as §1
# [21] = test system: Streptococcus pyogenes C203; assay: MIC, standard agar dilution test; conditions: Streptococcus pyogenes C203; agar dilution; read-out: Minimum Inhibitory Concentration
# Text: as §1
# [22] = test system: Klebsiella pneumoniae KAE; assay: MIC, standard agar dilution test; conditions: Klebsiella pneumoniae KAE; agar dilution; read-out: Minimum Inhibitory Concentration
# Text: as §1
# [23] = test system: Streptococcus group D 9960; assay: MIC, standard agar dilution test; conditions: D9960; Streptococcus group D 9960; agar dilution; read-out: Minimum Inhibitory Concentration
# Text: as §1
# [24] = test system: Proteus rettgeri PR7; assay: MIC, standard agar dilution test
# Text: as §1
# [25] = test system: Bordetella bronchiseptica 16; assay: MIC, standard agar dilution test; conditions: Bordetella bronchiseptica 16; agar dilution; read-out: Minimum Inhibitory Concentration
# Text: as §1
# [26] = test system: Enterobacter cloacae 265A; assay: MIC, standard agar dilution test; conditions: Enterobacter cloacae 265A; agar dilution; read-out: Minimum Inhibitory Concentration
# Text: as §1
# [27] = test system: Enterobacter aerogenes X68; assay: MIC, standard agar dilution test
# Text: as §1
# [28] = test system: Hemophilus influenzae C.L.; assay: MIC, standard agar dilution test; conditions: Hemophilus influenzae C.L.
# Text: as §1
# [29] = test system: Enterobacter aerogenes C32; assay: MIC, standard agar dilution test; conditions: Klebsiella aerogenes; Enterobacter aerogenes C32; agar dilution; read-out: Minimum Inhibitory Concentration
# Text: as §1
# [30] = test system: Proteus inconstans PR33; assay: MIC, standard agar dilution test; conditions: Providencia alcalifaciens; Proteus inconstans PR33; agar dilution; read-out: Minimum Inhibitory Concentration
# Text: as §1
# [31] = test system: Pseudomonas aeruginosa X239; assay: MIC, standard agar dilution test; conditions: Pseudomonas aeruginosa X239; agar dilution; read-out: Minimum Inhibitory Concentration
# Text: as §1
# [32] = test system: Staphylococcus aureus V41; assay: MIC, standard agar dilution test; conditions: Staphylococcus aureus V41; agar dilution; read-out: Minimum Inhibitory Concentration
# Text: as §1
# [33] = test system: Staphylococcus aureus X1.1; assay: MIC, standard agar dilution test; conditions: Staphylococcus aureus X1.1, agar dilution
# Text: as §1
# [34] = test system: Staphylococcus aureus X400; assay: MIC, standard agar dilution test
# Text: as §1
# [35] = test system: Citrobacter freundii CF17; assay: MIC, standard agar dilution test; conditions: Citrobacter freundii CF17; agar dilution; read-out: Minimum Inhibitory Concentration
# Text: as §1
# [36] = test system: Staphylococcus epidermidis EPI1; assay: MIC, standard agar dilution test; conditions: Staphylococcus epidermidis EPI1; agar dilution; read-out: Minimum Inhibitory Concentration
# Text: as §1
# [37] = test system: Escherichia coli X563; assay: Standard disc-plate method, zone of inhibition against apramycin-resistant strain; conditions: 15 mcg/disc; apramycin-resistant E. coli X563; one value for each of two test runs per compound; listed as 2
# Text: Table III, shown below, illustrates the in vitro activity of 1-N-(S-y-amino-a-hydroxybutyryl)apramycin, 1-N-(RS-y-amino-a-hydroxybutyryl)apramycin, and 1-N-(S-y-amino-a-hydroxybutyryl)nebramine against an apramycin resistant strain of E. coli. The results below were obtained using the standard disc-plate method. The numerical values are the diameters in millimeters of the zones of inhibition observed against this bacterium. Compounds substituted with the y-amino-a-hydroxybutyryl and analogous side chains are useful in treating infections caused by apramycin resistant bacteria such as the one above.
# The test organism (E. coli X563) used in the experiments summarized in Table III is resistant to apramycin due to a 3-N-acetyltransferase which enzymatically inactivates apramycin.
structure (smiles),measurement,setting,value
"NCC[C@H](O)C(=O)N[C@@H]1C[C@H](N)[C@@H](O[C@H]2O[C@H](CN)[C@@H](O)C[C@H]2N)[C@H](O)[C@H]1O [Test Compound 5, 1-N-(S-γ-amino-α-hydroxybutyryl)nebramine]",MIC,[1],4 µg/mL
same,MIC,"[2]; Serratia marcescens X99, read-out: Minimum Inhibitory Concentration",8 µg/mL
same,MIC,[3],4 µg/mL
same,MIC,[4],16 µg/mL
same,MIC,[5],8 µg/mL
same,MIC,[6],8 µg/mL
same,MIC,[7],32 µg/mL
same,MIC,"[8]; Escherichia coli, N10, Escherichia coli N10, read-out: Minimum Inhibitory Concentration",8 µg/mL
same,MIC,[9],16 µg/mL
same,MIC,[10],16 µg/mL
same,MIC,[11],32 µg/mL
same,MIC,[12],8 µg/mL
same,MIC,[13],8 µg/mL
same,MIC,[14],2 µg/mL
same,MIC,[15],16 µg/mL
same,MIC,"[16]; Haemophilus influenzae, Hemophilus influenzae 76, read-out: Minimum Inhibitory Concentration",16 µg/mL
same,MIC,[17],> 128 µg/mL
same,MIC,[18],16 µg/mL
same,MIC,[19],16 µg/mL
same,MIC,[20],64 µg/mL
same,MIC,[21],16 µg/mL
same,MIC,[22],8 µg/mL
same,MIC,[23],> 128 µg/mL
same,MIC,"[24]; Providencia rettgeri, Proteus rettgeri PR7, read-out: Minimum Inhibitory Concentration",8 µg/mL
same,MIC,[25],32 µg/mL
same,MIC,[26],32 µg/mL
same,MIC,"[27]; Klebsiella aerogenes, Enterobacter aerogenes X68, read-out: Minimum Inhibitory Concentration",8 µg/mL
same,MIC,"[28]; Haemophilus influenzae, read-out: Minimum Inhibitory Concentration",16 µg/mL
same,MIC,[29],8 µg/mL
same,MIC,[30],8 µg/mL
same,MIC,[31],32 µg/mL
same,MIC,[32],8 µg/mL
same,MIC,[33]; read-out: Minimum Inhibitory Concentration,8 µg/mL
same,MIC,"[34]; Staphylococcus aureus X400, read-out: Minimum Inhibitory Concentration",64 µg/mL
same,MIC,[35],16 µg/mL
same,MIC,[36],8 µg/mL
"CNC1C(OC2OC(CO)C(N)C(O)C2O)OC2CC(N)C(OC3C(N)CC(NC(=O)C(O)CCN)C(O)C3O)OC2C1O (stereo not drawn) [Test Compound 2, 1-N-(RS-γ-amino-α-hydroxybutyryl)apramycin]",Minimum Inhibitory Concentration,[2]; Serratia marcescens X99,16 µg/mL
same,Minimum Inhibitory Concentration,[8]; Escherichia coli N10,16 µg/mL
same,Minimum Inhibitory Concentration,[16]; Hemophilus influenzae 76,32 µg/mL
same,Minimum Inhibitory Concentration,[24]; Proteus rettgeri PR7,4 µg/mL
same,Minimum Inhibitory Concentration,[27]; Enterobacter aerogenes X68,16 µg/mL
same,Minimum Inhibitory Concentration,[28],32 µg/mL
same,Minimum Inhibitory Concentration,[33],8 µg/mL
same,Minimum Inhibitory Concentration,[34]; Staphylococcus aureus X400,64 µg/mL
same,Zone of Inhibition (diameter in mm),[37],12.5 mm and 13.6 mm
